{"source": "patent WO2016087994A1", "about": "“Btk inhibitors to treat solid tumors through modulation of the tumor microenvironment” (dated 2016)", "key": {"[1]": {"biological_target": "epidermal growth factor receptor (EGFR) (Homo sapiens, UniProt P00533)", "sequence (P00533 25-1210)": "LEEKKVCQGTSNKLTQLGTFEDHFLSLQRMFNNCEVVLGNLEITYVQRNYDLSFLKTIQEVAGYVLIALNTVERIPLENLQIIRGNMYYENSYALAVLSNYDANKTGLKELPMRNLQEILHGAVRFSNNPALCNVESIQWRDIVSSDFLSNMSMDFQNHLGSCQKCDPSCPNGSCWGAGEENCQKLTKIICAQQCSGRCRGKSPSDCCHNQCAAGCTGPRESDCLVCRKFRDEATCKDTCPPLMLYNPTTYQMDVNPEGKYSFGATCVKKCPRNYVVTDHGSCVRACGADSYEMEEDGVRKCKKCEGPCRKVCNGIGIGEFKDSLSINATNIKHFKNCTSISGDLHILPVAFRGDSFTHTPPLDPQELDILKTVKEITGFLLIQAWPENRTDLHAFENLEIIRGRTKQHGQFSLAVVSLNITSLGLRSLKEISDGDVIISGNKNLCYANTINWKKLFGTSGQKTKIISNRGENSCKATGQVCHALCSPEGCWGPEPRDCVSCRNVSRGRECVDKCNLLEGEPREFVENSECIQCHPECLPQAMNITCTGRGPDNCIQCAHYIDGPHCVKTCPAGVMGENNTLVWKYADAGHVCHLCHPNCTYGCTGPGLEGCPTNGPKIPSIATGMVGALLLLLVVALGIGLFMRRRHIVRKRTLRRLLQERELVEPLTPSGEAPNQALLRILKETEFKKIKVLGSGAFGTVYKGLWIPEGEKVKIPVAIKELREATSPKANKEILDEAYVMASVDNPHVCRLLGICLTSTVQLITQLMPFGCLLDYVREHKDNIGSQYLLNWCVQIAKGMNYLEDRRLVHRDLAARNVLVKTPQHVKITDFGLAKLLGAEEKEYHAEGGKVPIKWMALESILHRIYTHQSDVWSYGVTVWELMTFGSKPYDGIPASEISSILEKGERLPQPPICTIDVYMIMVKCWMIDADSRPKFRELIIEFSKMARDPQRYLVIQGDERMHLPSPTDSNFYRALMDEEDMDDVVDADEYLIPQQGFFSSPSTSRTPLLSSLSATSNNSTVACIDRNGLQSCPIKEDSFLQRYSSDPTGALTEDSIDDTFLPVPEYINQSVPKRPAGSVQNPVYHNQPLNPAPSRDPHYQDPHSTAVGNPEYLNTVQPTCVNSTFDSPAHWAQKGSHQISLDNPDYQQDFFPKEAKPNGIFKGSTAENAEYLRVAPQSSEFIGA", "conditions": "cited from earlier work"}, "[2]": {"test_system": "B cell receptor (CD69 on CD19+ B cells)", "assay": "Inhibition of BCR signaling (CD69) on B cells in whole blood", "type": "cell-based", "conditions": "Homo sapiens, 18 h"}, "[3]": {"test_system": "CD8 + T cells with B lymphoblast targets", "assay": "Cytotoxic T cell (CTL) assay", "type": "cell-based", "conditions": "500 nM, relative to vehicle"}, "[4]": {"test_system": "CLL/lymphoid malignancies", "conditions": "human, in vivo; cited from earlier work"}, "[5]": {"test_system": "rituximab-coated Raji cells", "assay": "Rituximab ADCC, chromium release, Raji targets", "type": "cell-based, human", "conditions": "1 μM; healthy donor NK cells / Raji; listed as ibrutinib"}, "[6]": {"test_system": "GPVI platelet aggregation", "assay": "GPVI (convulxin-induced) human platelet aggregation", "type": "cell-based"}, "CD8 + T cells [7]": {"test_system": "CD8 + T cells", "assay": "CD8+ T cell viability", "type": "cell-based", "conditions": "higher concentrations of ibrutinib; any concentration of Formula (II)"}, "[8]": {"conditions": "420 mg QD; cited from earlier work"}, "CD8 + T cells [9]": {"test_system": "CD8 + T cells", "assay": "CD8+ T cell IFN-γ levels", "type": "cell-based", "conditions": "relative to vehicle"}, "CD4 + T cells": {"test_system": "CD4 + T cells", "assay": "Th17 and Treg development of CD4+ T cells", "type": "cell-based"}, "[10]": {"test_system": "human platelet-mediated thrombosis", "assay": "In vivo human platelet thrombus formation after laser injury in VWF HA1 mice", "parameters": "species or system human platelets in VWF HA1 mice"}, "[11]": {"test_system": "metastatic pancreatic cancer", "conditions": "Phase 3; P < 0.001; cited from earlier work"}, "CLL": {"test_system": "CLL", "conditions": "cited from earlier work"}, "[12]": {"conditions": "Phase 1, previously treated CLL, monotherapy"}}, "note": "Entries after “also recorded” stand apart in the source; their conditions may differ.", "data": [{"molecule": "C=CC(=O)N1CCC[C@@H](n2nc(-c3ccc(Oc4ccccc4)cc3)c3c(N)ncnc32)C1", "note": "[Formula (X), l-[(3i?)-3-[4-amino-3-(4-phenoxyphenyl)-lH-pyrazolo[3,4-i]pyrimidin-l-yl]piperidin-l-yl]prop-2-en-l-one]", "values": [{"measurement": "inhibition of EGFR (in words)", "setting": "[1]", "value": "inhibits epidermal growth factor receptor (EGFR)"}, {"measurement": "EC50", "setting": "[2]", "value": 0.0061, "unit": "µM"}, {"measurement": "CD8+ T cell function as % cytotoxicity (in words)", "setting": "[3]", "value": "affects CD8 + T cell function"}, {"measurement": "onset of lymphocytosis after start of therapy", "setting": "[4]", "value": "1-2 weeks"}, {"measurement": "time to plateau of lymphocytosis", "setting": "[4]", "value": "2-3 cycles"}, {"measurement": "inhibition of rituximab ADCC (in words)", "setting": "[5]", "value": "completely inhibited ADCC; also recorded: strongly inhibited the antibody-dependent lysis of target cells"}, {"measurement": "inhibition of GPVI platelet aggregation (in words)", "setting": "[6]", "value": "significantly inhibits GPVI platelet aggregation"}, {"measurement": "IC50", "setting": "[6]; Homo sapiens, Platelet, read-out: IC50, GPVI platelet aggregation", "value": 0.13, "unit": "µM"}, {"measurement": "CD8+ T cell viability (in words)", "setting": "CD8 + T cells [7]", "value": "strong, negative effect on CD8 + T cell viability"}, {"measurement": "bleeding events in CLL", "setting": "[8]", "value": 63, "unit": "%"}, {"measurement": "CD8+ T cell function as IFN-γ level (in words)", "setting": "CD8 + T cells [9]", "value": "affects CD8 + T cell function; also recorded: significant loss of function"}, {"measurement": "Th17 development (in words)", "setting": "CD4 + T cells", "value": "profound inhibition of Thl7 cells"}, {"measurement": "Treg development (in words)", "setting": "CD4 + T cells", "value": "increase in Treg development"}]}, {"molecule": "C=CC(=O)Nc1cccc(Nc2nc(Nc3ccc(OCCOC)cc3)ncc2F)c1", "note": "[Formula (XVII), N-(3-((5-fluoro-2-((4-(2-methoxyethoxy)phenyl)amino)pyrimidin-4-yl)amino)phenyl)acrylamide, reference compound]", "values": [{"measurement": "effect on thrombus formation (in words)", "setting": "[10]", "value": "interfere with thrombus formation; also recorded: an effect similar to Formula (X) (ibrutinib)"}]}, {"molecule": "Nc1ccn([C@@H]2O[C@H](CO)[C@@H](O)C2(F)F)c(=O)n1", "note": "[gemcitabine, 4-amino-l-((2i?,4i?,5i?)-3,3-difluoro-4-hydroxy-5-(hydroxymethyl)tetrahydrofuran-2-yl)pyrimidin-2(lH)-one]", "values": [{"measurement": "ORR", "setting": "[11]", "value": 7, "unit": "%"}, {"measurement": "median OS", "setting": "[11]", "value": 6.7, "unit": "months"}, {"measurement": "median PFS", "setting": "[11]", "value": 3.7, "unit": "months"}]}, {"molecule": "obinutuzumab: humanized monoclonal antibody directed against CD20", "values": [{"measurement": "MRD-negative complete responses", "setting": "CLL; [12]", "value": 1}, {"measurement": "response rate", "setting": "CLL; [12]", "value": 62, "unit": "%"}, {"measurement": "infusion related reactions (IRR), Grade 3", "setting": "CLL; R/R CLL, Phase 1 portion, n=13", "value": 15, "unit": "%"}, {"measurement": "infusion related reactions (IRR), Grade 4 (in words)", "setting": "CLL; R/R CLL, Phase 1 portion, n=13", "value": "no Grade 4"}, {"measurement": "infusion related reactions (IRR), all grade", "setting": "CLL; R/R CLL, Phase 1 portion, n=13", "value": "100 % of patients"}, {"measurement": "Grade 3 reactions among those with hypotension", "setting": "CLL; R/R CLL, Phase 2 portion", "value": 25, "unit": "%"}, {"measurement": "IRR cases developing symptoms of hypotension", "setting": "CLL; R/R CLL, Phase 2 portion", "value": "60 % of cases"}, {"measurement": "patients with IRR", "setting": "CLL; R/R CLL, Phase 2 portion", "value": "95 % of patients"}]}]}
